These results are taken from patent US20090111105A1 (priority 2007, published 2009).

Assay [1] addresses T1, androgen receptor (AR) (Homo sapiens, UniProt P10275).
T1 sequence (P10275 1-920): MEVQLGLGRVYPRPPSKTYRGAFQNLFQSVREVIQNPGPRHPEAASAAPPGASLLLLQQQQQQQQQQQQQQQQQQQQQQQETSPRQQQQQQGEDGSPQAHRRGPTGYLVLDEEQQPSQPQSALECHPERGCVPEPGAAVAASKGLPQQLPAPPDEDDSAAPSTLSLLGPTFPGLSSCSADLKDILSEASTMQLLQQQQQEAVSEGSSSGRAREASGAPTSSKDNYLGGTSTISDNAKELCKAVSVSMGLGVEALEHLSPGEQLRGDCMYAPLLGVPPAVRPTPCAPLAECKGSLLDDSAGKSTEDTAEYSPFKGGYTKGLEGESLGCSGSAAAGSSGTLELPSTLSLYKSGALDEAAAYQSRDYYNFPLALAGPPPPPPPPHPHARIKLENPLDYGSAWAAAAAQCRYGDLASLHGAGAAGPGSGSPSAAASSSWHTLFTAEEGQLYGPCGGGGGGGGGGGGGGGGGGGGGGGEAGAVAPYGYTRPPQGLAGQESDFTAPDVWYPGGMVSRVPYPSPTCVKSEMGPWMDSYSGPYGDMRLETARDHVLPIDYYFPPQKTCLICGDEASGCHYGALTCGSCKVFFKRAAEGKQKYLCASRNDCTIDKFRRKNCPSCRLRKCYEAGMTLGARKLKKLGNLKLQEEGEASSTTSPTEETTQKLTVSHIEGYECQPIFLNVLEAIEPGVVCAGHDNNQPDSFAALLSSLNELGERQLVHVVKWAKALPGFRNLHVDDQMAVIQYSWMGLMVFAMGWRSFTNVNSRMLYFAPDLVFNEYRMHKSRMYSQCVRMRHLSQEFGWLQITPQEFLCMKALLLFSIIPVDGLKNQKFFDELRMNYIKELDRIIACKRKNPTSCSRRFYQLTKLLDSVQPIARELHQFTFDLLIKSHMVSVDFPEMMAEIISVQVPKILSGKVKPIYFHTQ
The note with it: SH-SY5Y cells, 1f-pGI3 + pSG5AR, FIG. 8 and FIG. 10.

Assay [2] has as its system male sexual behaviour. As to conditions: in comparison with testosterone; Arteaga-Silva et al. 2005; cited from earlier work.
Assay [3] relates to prostate. As to conditions: Arteaga-Silva et al. 2005; cited from earlier work.

In the case of `CCC(=O)O[C@H]1CC[C@H]2[C@@H]3CCC4=CC(=O)CC[C@]4(C)[C@H]3CC[C@]12C` [testosterone propionate], in assay [1], the “induction of reporter gene expression on the 1f-promoter” value is “very potent stimulation”.

For `C[C@]12CCC(=O)C[C@@H]1CC[C@@H]1[C@@H]2CC[C@]2(C)[C@@H](O)CC[C@@H]12` [DHT, dihydrotestosterone], the “action on male sexual behaviour” value in assay [2] is “considerably less action”. In assay [3], the “androgenic action on the prostate” value was “very strong androgen”.
